{"source": "patent US6545148B2", "about": "“Process for preparing certain substituted caprolactams” (Novartis AG, priority 2001, dated 2003)", "assay": "H2O solubility of the chromatographed white solid", "type": "physicochemical", "conditions": "white solid after chromatography (2% methanol-CH2Cl2), before preparative hplc purification", "procedure": "To a stirred solution of trifluoroacetic acid (10 ml), tetrahydrofuran (10 ml) and water (5 ml) at 0° C. is added, in one portion, 3.8 g (7.1 mmol) of the compound prepared in a) above. The reaction is stirred at 0° C. for 30 minutes, concentrated via rotary evaporation (bath temperature <20° C), mixed with saturated NH4HCO3 (5 mL) and stirred for 15 minutes. […] This material is further purified using preparative hplc (reverse phase eluted with 90% CH3CN-water) to give 2.9 g (82.4%) of the title compound as a white solid, m.p. 79-80° C.", "data": [{"smiles": "CO[C@@H](C(=O)N[C@H]1CC[C@@H](OC(=O)C2CCCCC2)CNC1=O)[C@H](O)[C@@H](O)[C@H](O)/C=C/C(C)(C)C", "note": "[Example 3, (2R, 3R, 4S, 5R, 6E)-3,4,5-trihydroxy-2-methoxy-8,8-dimethyl-N-[(3S,6R) -hexahydro-2-oxo-6-(cyclohexylcorbonyl)oxy-2H-azepin-3-3-yl]non-6-enamide]", "values": [{"measurement": "H2O solubility", "result": 3700, "unit": "µg/mL"}]}]}
